Results published in the NIST ThermoML archive (doi:10.1021/je200252c).
± gives the expanded uncertainty stated by the source.

Test: Molar enthalpy of transition or fusion
Conditions: Crystal; DSC

## c1ccc2c(c1)OP1(=NP3(=NP4(=N1)Oc1ccccc1O4)Oc1ccccc1O3)O2 [tris(o-phenylenedioxy)cyclotriphosphazene]
  Molar enthalpy of transition or fusion: 4.67 ± 0.143 kcal/mol
